In US10287301B2 (Achillion Pharmaceuticals, Inc., priority 2015, dated 2019):

What follows are molecules tested against Human Factor D (Homo sapiens (Human), UniProt P00746) (assay: Human Factor D Assay). Settings: not given.
Format: biochemical
Method in brief: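 Thioester cleavage assay: human Factor D (serum-derived, 80 nM final), substrate Z-L-Lys-SBzl with DTNB, both 100 μM final, after 5 min compound preincubation at room temperature.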

Human Factor D, sequence (P00746 26-253): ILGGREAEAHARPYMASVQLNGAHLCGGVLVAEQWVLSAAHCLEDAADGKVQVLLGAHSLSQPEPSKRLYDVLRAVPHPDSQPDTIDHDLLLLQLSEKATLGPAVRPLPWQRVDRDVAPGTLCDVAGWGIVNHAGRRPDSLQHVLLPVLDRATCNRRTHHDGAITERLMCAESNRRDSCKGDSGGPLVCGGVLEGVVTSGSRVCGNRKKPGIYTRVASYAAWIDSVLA

Row | Structure (SMILES) | IC50 [nM]
1 | CC(=O)c1nn(CC(=O)N2C[Si](C)(C)C[C@H]2C(=O)Nc2cccc(Br)n2)c2ccc(-c3cnc(C)nc3)cc12 [Compound 514, (R)-1-(2-(3-acetyl-5-(2-Methylpyrimidin-5-yl)-1H-indazol-1-yl)acetyl)-N-(6-bromopyridin-2-yl)-3,3-dimethyl-1,3-azasilolidine-5-carboxamide] | 1000 to 10000

Same assay, conditions: Human Factor D, Table 3; read-out: IC50

Row | Structure (SMILES) | IC50 [nM]
2 | CC(=O)c1nn(CC(=O)N2CC[C@H]2C(=O)Nc2cccc(Br)n2)c2ccc(-c3cnc(C)nc3)cc12 [Compound 542, (S)-1-(2-(3-Acetyl-5-(2-methylpyrimidin-5-yl)-1H-indazol-1-yl)acetyl)-N-(6-bromopyridin-2-yl)azetidine-2-carboxamide] | < 1000
3 | COc1ccc(-c2ccc3c(c2)c(C(C)=O)nn3CC(=O)N2CC[C@H]2C(=O)Nc2cccc(C)n2)cn1 [Compound 546, (S)-1-(2-(3-Acetyl-5-(6-methoxypyridin-3-yl)-1H-indazol-1-yl)acetyl)-N-(6-methylpyridin-2-yl)azetidine-2-carboxamide] | > 10000
4 | CC(=O)c1nn(CC(=O)N2CC[C@H]2C(=O)Nc2cccc(C)n2)c2ccc(-c3cccc(C#N)c3)cc12 [Compound 547, (S)-1-(2-(3-Acetyl-5-(3-cyanophenyl)-1H-indazol-1-yl)acetyl)-N-(6-methylpyridin-2-yl)azetidine-2-carboxamide] | > 10000
5 | CC(=O)c1nn(CC(=O)N2CC[C@H]2C(=O)Nc2cccc(C)n2)c2ccc(-c3cccnc3)cc12 [Compound 548, (S)-1-(2-(3-Acetyl-5-(pyridin-3-yl)-1H-indazol-1-yl)acetyl)-N-(6-methylpyridin-2-yl)azetidine-2-carboxamide] | > 10000
6 | CC(=O)c1nn(CC(=O)N2CC[C@H]2C(=O)Nc2cccc(C)n2)c2ccc(-c3ccc(F)nc3)cc12 [Compound 549, (S)-1-(2-(3-Acetyl-5-(6-fluoropyridin-3-yl)-1H-indazol-1-yl)acetyl)-N-(6-methylpyridin-2-yl)azetidine-2-carboxamide] | > 10000
7 | CC(=O)c1nn(CC(=O)N2[C@@H]3C[C@@H]3C[C@H]2C(=O)NCC(F)=C(C)C2CC2)c2ccc(-c3cnc(C)nc3)cc12 [Compound 551, (1R,3S,5R)-2-(2-(3-Acetyl-5-(2-methylpyrimidin-5-yl)-1H-indazol-1-yl)acetyl)-N-(3-cyclopropyl-2-fluorobut-2-en-1-yl)-2-azabicyclo[3.1.0]hexane-3-carboxamide] | < 1000

Same assay, conditions: Table 3; Human Factor D 80 nM, substrate Z-L-Lys-SBzl; read-out: IC50 (Stars)

Row | Structure (SMILES) | IC50 [nM]
8 | CC(=O)N[C@H]1[C@@H](C(=O)Nc2cccc(Br)n2)N(C(=O)Cn2nc(C(C)=O)c3cc(-c4cnc(C)nc4)ccc32)C[C@@H]1F [Compound 512, (2S,3S,4S)-3-Acetamido-1-(2-(3-acetyl-5-(2-methylpyrimidin-5-yl)-1H-indazol-1-yl)acetyl)-N-(6-bromopyridin-2-yl)-4-fluoropyrrolidine-2-carboxamide] | < 1000
9 | CC(=O)N[C@@H]1CN(C(=O)Cn2nc(C(C)=O)c3cc(-c4cnc(C)nc4)ccc32)[C@H](C(=O)Nc2cccc(Br)n2)[C@H]1F [Compound 513, (2R,3S,4R)-4-Acetamido-1-(2-(3-acetyl-5-(2-methylpyrimidin-5-yl)-1H-indazol-1-yl)acetyl)-N-(6-bromopyridin-2-yl)-3-fluoropyrrolidine-2-carboxamide] | < 1000
10 | Cc1cccc(NC(=O)[C@@H]2[C@H]3CC[C@H](C3)N2C(=O)Cn2cc(C(N)=O)c3cc(-c4ccc5c(c4)CCCC5)ccc32)n1 [Compound 515, 1-(2-((1R,3S,4S)-3-(6-Methylpyridin-2-ylcarbamoyl)-2-azabicyclo[2.2.1]heptan-2-yl)-2-oxoethyl)-5-(5,6,7,8-tetrahydronaphthalen-2-yl)-1H-indole-3-carboxamide] | > 10000
11 | CC(=O)c1nn(CC(=O)N2[C@@H]3C[C@@H]3C[C@H]2C(=O)NC/C(F)=C(\C)c2cccc(Cl)c2)c2ccc(-c3cnc(C)nc3)cc12 [Compound 516, (1R,3S,5R)-2-(2-(3-Acetyl-5-(2-methylpyrimidin-5-yl)-1H-indazol-1-yl)acetyl)-N—((Z)-3-(3-chlorophenyl)-2-fluorobut-2-en-1-yl)-2-azabicyclo[3.1.0]hexane-3-carboxamide] | < 1000
12 | CC(=O)c1nn(CC(=O)N2C[C@H](F)C[C@H]2C(=O)Nc2nc(Br)c(F)cc2C)c2ccc(-c3cnc(C)nc3)cc12 [Compound 520, (2S,4R)-1-(2-(3-Acetyl-5-(2-methylpyrimidin-5-yl)-1H-indazol-1-yl)acetyl)-N-(6-bromo-5-fluoro-3-methylpyridin-2-yl)-4-fluoropyrrolidine-2-carboxamide] | < 1000
13 | CC(=O)c1nn(CC(=O)N2C[C@H](F)C[C@H]2C(=O)Nc2cccc(Br)n2)c2ccc(-c3cnc(S(C)(=O)=O)nc3)cc12 [Compound 521, (2S,4R)-1-(2-(3-Acetyl-5-(2-(methylsulfonyl)pyrimidin-5-yl)-1H-indazol-1-yl)acetyl)-N-(6-bromopyridin-2-yl)-4-fluoropyrrolidine-2-carboxamide] | < 1000
14 | CC(=O)c1nn(CC(=O)N2C[C@H](F)C[C@H]2C(=O)Nc2cccc(Br)n2)c2ccc(-c3cnc(-n4cccn4)nc3)cc12 [Compound 522, (2S,4R)-1-(2-(5-(2-(1H-Pyrazol-1-yl)pyrimidin-5-yl)-3-acetyl-1H-indazol-1-yl)acetyl)-N-(6-bromopyridin-2-yl)-4-fluoropyrrolidine-2-carboxamide] | < 1000
15 | CC(=O)c1nn(CC(=O)N2[C@@H]3C[C@@H]3C[C@H]2C(=O)NC/C(F)=C(/C)c2ccccc2Cl)c2ccc(-c3cnc(C)nc3)cc12 [Compound 523] | < 1000
16 | CC(=O)c1nn(CC(=O)N2[C@@H]3C[C@@H]3C[C@H]2C(=O)NC/C(F)=C(\C)c2ccccc2Cl)c2ccc(-c3cnc(C)nc3)cc12 [Compound 528] | < 1000
17 | COC(=O)Cc1ncc(-c2ccc3c(c2)c(C(C)=O)nn3CC(=O)N2C[C@H](F)C[C@H]2C(=O)Nc2cccc(Br)n2)cn1 [Compound 529, methyl 2-(5-(3-acetyl-1-(2-((2S,4R)-2-((6-bromopyridin-2-yl)carbamoyl)-4-fluoropyrrolidin-1-yl)-2-oxoethyl)-1H-indazol-5-yl)pyrimidin-2-yl)acetate] | < 1000
18 | CC(=O)c1nn(CC(=O)N2[C@@H](C)CC[C@H]2C(=O)Nc2cccc(Br)n2)c2ccc(-c3cnc(C)nc3)cc12 [Compound 530, (2S,5S)-1-(2-(3-Acetyl-5-(2-methylpyrimidin-5-yl)-1H-indazol-1-yl)acetyl)-N-(6-bromopyridin-2-yl)-5-methylpyrrolidine-2-carboxamide] | < 1000
19 | CSc1ncc(-c2ccc3c(c2)c(C(C)=O)nn3CC(=O)N2C[C@H](F)C[C@H]2C(=O)Nc2cccc(Br)n2)cn1 [Compound 531, (2S,4R)-1-(2-(3-Acetyl-5-(2-(methylthio)pyrimidin-5-yl)-1H-indazol-1-yl)acetyl)-N-(6-bromopyridin-2-yl)-4-fluoropyrrolidine-2-carboxamide] | < 1000
20 | CC(=O)c1nn(CC(=O)N2C[C@H](F)C[C@H]2C(=O)Nc2cccc(Br)n2)c2ccc(-c3cnc(CC(N)=O)nc3)cc12 [Compound 532, (2S,4R)-1-(2-(3-Acetyl-5-(2-(2-amino-2-oxoethyl)pyrimidin-5-yl)-1H-indazol-1-yl)acetyl)-N-(6-bromopyridin-2-yl)-4-fluoropyrrolidine-2-carboxamide] | < 1000
21 | CC(=O)c1nn(CC(=O)N2C[C@H](F)C[C@H]2C(=O)Nc2cccc(Br)n2)c2ccc(-c3cnc(CC(=O)O)nc3)cc12 [Compound 533, 2-(5-(3-Acetyl-1-(2-((2S,4R)-2-((6-bromopyridin-2-yl)carbamoyl)-4-fluoropyrrolidin-1-yl)-2-oxoethyl)-1H-indazol-5-yl)pyrimidin-2-yl)acetic acid] | < 1000
22 | CCc1ccc(Br)nc1NC(=O)[C@@H]1C[C@@H](F)CN1C(=O)Cn1nc(C(C)=O)c2cc(-c3cnc(C)nc3)ccc21 [Compound 534, (2S,4R)-1-(2-(3-Acetyl-5-(2-methylpyrimidin-5-yl)-1H-indazol-1-yl)acetyl)-N-(6-bromo-3-ethylpyridin-2-yl)-4-fluoropyrrolidine-2-carboxamide] | < 1000
23 | Cc1cccc(NC(=O)[C@@H]2[C@H]3CC[C@H](C3)N2C(=O)Cn2cc(C(N)=O)c3cc(-c4cnc5c(c4)CCC5)ccc32)n1 [Compound 535, 5-(6,7-Dihydro-5H-cyclopenta[b]pyridin-3-yl)-1-(2-((1R,3S,4S)-3-(6-methylpyridin-2-ylcarbamoyl)-2-azabicyclo[2.2.1]heptan-2-yl)-2-oxoethyl)-1H-indole-3-carboxamide] | > 10000
24 | Cc1cccc(NC(=O)[C@@H]2[C@H]3CC[C@H](C3)N2C(=O)Cn2cc(C(N)=O)c3cc(-c4ccc5c(c4)CC5)ccc32)n1 [Compound 536, 5-(1,2-Dihydrocyclobutabenzen-4-yl)-1-(2-((1R,3S,4S)-3-(6-methylpyridin-2-ylcarbamoyl)-2-azabicyclo[2.2.1]heptan-2-yl)-2-oxoethyl)-1H-indole-3-carboxamide] | > 10000
25 | CCOC(=O)Cc1ncc(-c2ccc3c(c2)c(C(C)=O)nn3CC(=O)N2C[C@H](F)C[C@H]2C(=O)Nc2cccc(Br)n2)cn1 [Compound 537, Ethyl 2-(5-(3-acetyl-1-(2-((2S,4R)-2-((6-bromopyridin-2-yl)carbamoyl)-4-fluoropyrrolidin-1-yl)-2-oxoethyl)-1H-indazol-5-yl)pyrimidin-2-yl)acetate] | < 1000
26 | CC(=O)c1nn(CC(=O)N2C[C@H](F)C[C@H]2C(=O)Nc2nc(Br)ccc2C2CC2)c2ccc(-c3cnc(C)nc3)cc12 [Compound 538, (2S,4R)-1-(2-(3-Acetyl-5-(2-methylpyrimidin-5-yl)-1H-indazol-1-yl)acetyl)-N-(6-bromo-3-cyclopropylpyridin-2-yl)-4-fluoropyrrolidine-2-carboxamide] | < 1000
27 | CCOC(=O)Cc1ncc(-c2ccc3c(c2)c(C(C)=O)nn3CC(=O)N2C[C@H](F)C[C@H]2C(=O)Nc2ccc(F)c(Br)n2)cn1 [Compound 539, ethyl 2-(5-(3-Acetyl-1-(2-((2S,4R)-2-((6-bromo-5-fluoropyridin-2-yl)carbamoyl)-4-fluoropyrrolidin-1-yl)-2-oxoethyl)-1H-indazol-5-yl)pyrimidin-2-yl)acetate] | < 1000
